Assay results as given in US11554182B2, “Macrocyclic complexes of alpha-emitting radionuclides and their use in targeted radiotherapy of cancer” (CORNELL UNIVERSITY, priority 2017, dated 2023).

Test: In vivo biodistribution of ^225Ac complexes after intravenous injection
Set-up: species or system C57BL/6 mice
Method: In Vivo Biodistribution of ^225Ac Complexes of Macropa and DOTA. All experiments were approved by the Institutional Animal Care Committee (IACC) of the University of British Columbia and were performed in accordance with the Canadian Council on Animal Care Guidelines. A total of 9 female C57BL/6 mice (6-8 weeks old, 20-25 g) were used for the biodistribution study of each radiometal complex, n=3 for each time point.
Macropa (100 μL of a 1 mg/mL solution in NH4OAc) was diluted with 387 μL of NH4OAc (1 M, pH 7), and an aliquot (203 μL) of ^225Ac(NO3)3 (˜157 kBq) was then added; the pH of this solution was adjusted to 6.5-7 by the addition of 1 M NaOH (210 μL, trace metal grade). After 5 min at ambient temperature, the reaction solution was analyzed by TLC (0.4 M pH 4 sodium citrate as the eluent), which confirmed >95% radiochemical yield. The reaction was allowed to proceed overnight, and the radiochemical yield was again confirmed to be >95% the following morning. At this time, mice were anesthetized by 2% isoflurane, and approximately 100 μL (10-15 kBq) of the [^225Ac(macropa)]^+ complex were injected into the tail vein of each mouse. After injection, mice were allowed to recover and roam freely in their cages, and were euthanized by CO2 inhalation at 15 min, 1 h, or 5 h (n=3 at each time point) post-injection. Blood was collected by cardiac puncture and placed into an appropriate test tube for scintillation counting. Tissues collected included heart, liver, kidneys, lungs, small intestine, large intestine, brain, bladder, spleen, stomach, pancreas, bone, thyroid, tail, urine, and feces. Tissues were weighed and then counted with a calibrated gamma counter (Packard, Cobra II model 5002) using three energy windows: 60-120 keV (window A), 180-260 keV (window B), and 400-480 keV (window C). Counting was performed both immediately after sacrifice and after 7 days; counts were decay corrected from the time of injection and then converted to the percentage of injected dose (% ID) per gram of tissue (% ID/g). No differences were noted between the data; therefore, the biodistributions are reported using the data acquired immediately using window A.
The biodistribution studies of [^225Ac(DOTA)]^− and ^225Ac(NO3)3 were carried out as described above for [^225Ac(macropa)]^+, with the following modifications. [^225Ac(DOTA)]^− was prepared by adding ^225Ac(NO3)3 (338 μL, 1.1 MBq) to a solution of DOTA (100 μg, 20 mg/mL in H2O) in NH4OAc (467 μL, 0.15 M, pH 7). The pH of the solution was adjusted to 7 using NH4OAc (150 μL, 1 M, pH 7) and the solution was heated at 85° C. for 45 min. RCY>99% was confirmed by TLC as described above. [^225Ac(DOTA)]^− was diluted with saline to a final concentration of 0.05 MBq/100 μL, and 100 μL were injected into each mouse. ^225Ac(NO3)3 (˜58 μL, 0.4 MBq) was diluted and injected in the same manner as [^225Ac(DOTA)]^−. One mouse that was to be euthanized at the 5 h time point in the [^225Ac(DOTA)]^− study died shortly after injection. In the same manner, one mouse that was to be euthanized at the 1 h time point in the ^225Ac(NO3)3 study died.
The in vivo stability [^225Ac(macropa)]^+ was examined by comparing its biodistribution to those of ^225Ac(NO3)3 and [^225Ac(DOTA)]^−. C57BL/6 mice were injected via tail vein with 10-50 kBq of each radiometal complex and were sacrificed after 15 min, 1 h, or 5 h. The amount of ^225Ac retained in each organ was quantified by gamma counting and reported as the percent of injected dose per gram of tissue (% ID/g). The results of these studies are compiled in Tables 1-3. Inadequate stability of an ^225Ac complex leading to the loss of radioisotope in vivo is manifested by the accumulation of ^225Ac in the liver, spleen, and bone of mice.^[11,12,32] […] The biodistribution profile of [^225Ac(macropa)]^+ (FIG. 3B) differs markedly from that of ^225Ac(NO3)3. […]

[1] = 15 min after i.v. injection, energy window A (60-120 keV)
[2] = 15 min after i.v. injection, energy window B (180-260 keV)
[3] = 15 min after i.v. injection, energy window C (400-480 keV)
[4] = 1 h after i.v. injection, energy window A (60-120 keV)
[5] = 1 h after i.v. injection, energy window B (180-260 keV)

SMILES: O=[N+]([O-])[O-].O=[N+]([O-])[O-].O=[N+]([O-])[O-].[225Ac] [^225Ac(NO3)3]
- % ID/g in bladder [1]: 1.477 % ID/g
- % ID/g in blood [1]: 40.966 % ID/g
- % ID/g in bone (femur + joint) [1]: 2.764 % ID/g
- % ID/g in brain [1]: 0.614 % ID/g
- % ID/g in feces [1]: 0.240 % ID/g
- % ID/g in heart [1]: 8.557 % ID/g
- % ID/g in kidneys [1]: 10.468 % ID/g
- % ID/g in large intestines [1]: 1.116 % ID/g
- % ID/g in liver [1]: 22.899 % ID/g
- % ID/g in lungs [1]: 12.757 % ID/g
- % ID/g in pancreas [1]: 2.366 % ID/g
- % ID/g in small intestines [1]: 2.002 % ID/g
- % ID/g in spleen [1]: 22.733 % ID/g
- % ID/g in stomach [1]: 2.348 % ID/g
- % ID/g in tail [1]: 7.459 % ID/g
- % ID/g in thyroids [1]: 4.391 % ID/g
- % ID/g in urine [1]: 5.527 % ID/g
- % ID/g in bladder [2]: 1.6996 % ID/g
- % ID/g in blood [2]: 41.5628 % ID/g
- % ID/g in bone (femur + joint) [2]: 2.7487 % ID/g
- % ID/g in brain [2]: 0.6536 % ID/g
- % ID/g in feces [2]: 0.3857 % ID/g
- % ID/g in heart [2]: 8.3605 % ID/g
- % ID/g in kidneys [2]: 9.6424 % ID/g
- % ID/g in large intestines [2]: 1.1570 % ID/g
- % ID/g in liver [2]: 23.6091 % ID/g
- % ID/g in lungs [2]: 12.9714 % ID/g
- % ID/g in pancreas [2]: 2.2821 % ID/g
- % ID/g in small intestines [2]: 1.9641 % ID/g
- % ID/g in spleen [2]: 24.0497 % ID/g
- % ID/g in stomach [2]: 2.3704 % ID/g
- % ID/g in tail [2]: 8.0722 % ID/g
- % ID/g in thyroids [2]: 9.6295 % ID/g
- % ID/g in urine [2]: 5.0951 % ID/g
- % ID/g in bladder [3]: 1.9351 % ID/g
- % ID/g in blood [3]: 42.3521 % ID/g
- % ID/g in bone (femur + joint) [3]: 3.4560 % ID/g
- % ID/g in brain [3]: 0.6755 % ID/g
- % ID/g in feces [3]: 0.4896 % ID/g
- % ID/g in heart [3]: 9.0992 % ID/g
- % ID/g in kidneys [3]: 14.2266 % ID/g
- % ID/g in large intestines [3]: 1.5716 % ID/g
- % ID/g in liver [3]: 24.1147 % ID/g
- % ID/g in lungs [3]: 14.4797 % ID/g
- % ID/g in pancreas [3]: 2.4405 % ID/g
- % ID/g in small intestines [3]: 2.0956 % ID/g
- % ID/g in spleen [3]: 25.4263 % ID/g
- % ID/g in stomach [3]: 2.4232 % ID/g
- % ID/g in tail [3]: 9.1381 % ID/g
- % ID/g in thyroids [3]: 3.5934 % ID/g
- % ID/g in urine [3]: 19.8282 % ID/g
- % ID/g in bladder [4]: 0.9047 % ID/g
- % ID/g in blood [4]: 20.8234 % ID/g
- % ID/g in bone (femur + joint) [4]: 2.4707 % ID/g
- % ID/g in brain [4]: 0.2995 % ID/g
- % ID/g in feces [4]: 0.2189 % ID/g
- % ID/g in heart [4]: 4.4261 % ID/g
- % ID/g in kidneys [4]: 7.2170 % ID/g
- % ID/g in large intestines [4]: 0.6035 % ID/g
- % ID/g in liver [4]: 39.8269 % ID/g
- % ID/g in lungs [4]: 8.2412 % ID/g
- % ID/g in pancreas [4]: 2.1771 % ID/g
- % ID/g in small intestines [4]: 1.5594 % ID/g
- % ID/g in spleen [4]: 34.8831 % ID/g
- % ID/g in stomach [4]: 1.6211 % ID/g
- % ID/g in tail [4]: 5.7939 % ID/g
- % ID/g in thyroids [4]: 2.5988 % ID/g
- % ID/g in urine [4]: 4.5194 % ID/g
- % ID/g in bladder [5]: 0.8092 % ID/g
- % ID/g in blood [5]: 21.4460 % ID/g
- % ID/g in bone (femur + joint) [5]: 2.7705 % ID/g
- % ID/g in brain [5]: 0.3247 % ID/g
- % ID/g in feces [5]: 0.3300 % ID/g
- % ID/g in heart [5]: 4.5832 % ID/g
- % ID/g in kidneys [5]: 6.8770 % ID/g
- % ID/g in large intestines [5]: 0.5629 % ID/g
- % ID/g in liver [5]: 41.0995 % ID/g
